Laboratory results: paper PMC12568646, “Enzymatic combinatorial synthesis of E-64 and related cysteine protease inhibitors” (Nature Chemical Biology, 2025)
Each block holds one compound with its values, some of them ahead of it.

Legend:
[1] = biological target: T1, Cp1D (Aspergillus flavus, UniProt A0A7U2QR00); experiment: LC-MS of amide product formation; type: biochemical; conditions: 5 mM agmatine, 10 mM ATP, 10 mM MgCl2, 50 mM sodium phosphate pH 8.0, 30 °C
T1 construct: gene F9C07_2276917; full-length intron-free ORF in pET28a, 6xHis-tagged, expressed in E. coli BL21(DE3)
T1 sequence (A0A7U2QR00 1-463): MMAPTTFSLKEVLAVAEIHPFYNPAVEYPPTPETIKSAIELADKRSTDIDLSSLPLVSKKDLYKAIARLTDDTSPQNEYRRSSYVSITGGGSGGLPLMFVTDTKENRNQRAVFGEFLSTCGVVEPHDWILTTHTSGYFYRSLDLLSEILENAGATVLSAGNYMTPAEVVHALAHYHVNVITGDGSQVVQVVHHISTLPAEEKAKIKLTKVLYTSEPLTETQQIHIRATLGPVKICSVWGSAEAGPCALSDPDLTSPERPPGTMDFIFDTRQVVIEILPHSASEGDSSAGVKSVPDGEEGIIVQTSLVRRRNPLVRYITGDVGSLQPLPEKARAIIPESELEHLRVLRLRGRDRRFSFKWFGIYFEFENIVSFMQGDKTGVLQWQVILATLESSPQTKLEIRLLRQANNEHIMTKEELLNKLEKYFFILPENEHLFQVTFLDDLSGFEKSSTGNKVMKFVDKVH

[2] = biological target: T2, papain (Carica papaya, UniProt P00784); experiment: X-ray co-crystal structure; type: binding; conditions: covalent, active-site Cys25
T2 construct: mature native enzyme, twice-crystallized from papaya latex (Sigma)

[3] = biological target: T3, cathepsin B (Homo sapiens, UniProt P07858); experiment: fluorogenic Z-Phe-Arg-AMC assay; type: biochemical; conditions: 40 μM Z-Phe-Arg-AMC, citrate phosphate pH 5.5, 5 mM DTT, 37 °C; covalent, irreversible
T3 construct: gene CTSB

[4] = tested on: T4, Cp1B; experiment: X-ray crystal structure, […] Å; set-up: species or system Aspergillus flavus; conditions: ATP-binding site; crystal set up with ATP, MgCl2 and (±)-t-ES; MES also bound
T4 construct: full-length intron-free ORF in pET28a (pML8010), 6xHis-tagged, expressed in E. coli BL21(DE3); domains span residues 5-502

T2 sequence (P00784 134-345): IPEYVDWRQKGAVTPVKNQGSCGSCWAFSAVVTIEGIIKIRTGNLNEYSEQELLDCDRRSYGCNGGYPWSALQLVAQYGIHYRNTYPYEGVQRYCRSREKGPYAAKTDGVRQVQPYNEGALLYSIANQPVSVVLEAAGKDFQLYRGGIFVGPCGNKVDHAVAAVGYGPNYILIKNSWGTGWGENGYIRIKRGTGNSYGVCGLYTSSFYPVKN

Compound: CC[C@H](C)[C@H](NC(=O)[C@@H]1O[C@H]1C(=O)O)C(=O)O [(2R,3R)-t-ES-L-Ile]
KM (apparent) [1]: much more efficient compared to that toward (2R,3R)-t-ES-L-Ile

IC50 [3]: 14 ± 1.1 nM
Compound: NCCCCCCCCNC(=O)[C@@H](NC(=O)[C@H]1O[C@@H]1C(=O)O)C1CCC1 [(2S,3S)-t-ES-a9-b7]
X-ray co-crystal structure [2]: (2S,3S)-t-ES-a9-b7 was observed to be bound covalently to the active site cysteine

Compound: Nc1ncnc2c1ncn2[C@@H]1O[C@H](CO)[C@@H](O)[C@H]1O [adenosine]
X-ray crystal structure, 2.7 Å [4]: crystal structure of Cp1B complexed with adenosine and 2-morpholinoethanesulfonic acid (MES) was determined
